# According to PubChem BioAssay (NCI):
#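 Cultured in 96-well plates, cells were exposed to test compound for 48 hours across five concentrations. The concentration for full growth arrest is given as TGI.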 Where a SMILES comes first, the peptide text is derived from it. [ ]: non-standard residue; d: D form. The star is where a group is joined. NMeAc5c = CNC1(C(=O)O)CCCC1; Boc = CC(C)(C)OC(=O)*; OBn = c1ccc(CO*)cc1
# How the values were obtained:
# Assay in all cases: inhibition of tumour cell growth, NCI panel, 48 h
# [1] = system: OVCAR-5 ovarian
# [2] = system: OVCAR-3 ovarian
# [3] = system: NCI/ADR-RES ovarian
# [4] = system: U251 CNS
# [5] = system: IGROV1 ovarian
# [6] = system: NCI-H460 lung
# [7] = system: SF-539 CNS
# [8] = system: KM12 colon
# [9] = system: EKVX NSCLC
# [10] = system: M14 melanoma
# [11] = system: OVCAR-8 ovarian
# [12] = system: HT29 colon
Compound,TGI [1],TGI [2],TGI [3],TGI [4],TGI [5],TGI [6],TGI [7],TGI [8],TGI [9],TGI [10],TGI [11],TGI [12]
CN1CCc2cc(N)cc3c2C1Cc1ccc(O)c(O)c1-3 (stereo unspecified),> 100 µM,72.8 µM,> 100 µM,> 100 µM,> 100 µM,> 100 µM,> 100 µM,> 100 µM,> 100 µM,> 100 µM,> 100 µM,> 100 µM
COC(=O)c1c(C)cccc1C1CN=NC12Cc1ccc(C)cc1C2=O (stereo unspecified),> 100 µM,> 100 µM,> 100 µM,> 100 µM,> 100 µM,28.2 µM,> 100 µM,> 100 µM,> 100 µM,> 100 µM,> 100 µM,> 100 µM
COc1cccc(C(=O)O[C@H]2[C@@H]3[C@]4(OC(C)=O)CO[C@@H]4C[C@H](O)[C@@]3(C)C(=O)[C@H](OC(C)=O)C3=C(C)[C@@H](OC(=O)[C@H](O)[C@@H](NC(=O)OC(C)(C)C)c4ccco4)C[C@]2(O)C3(C)C)c1,> 22.8 µM,< 0.00375 µM,> 18.3 µM,> 16.6 µM,> 37.5 µM,> 37.5 µM,0.33 µM,> 15.2 µM,> 28.9 µM,5.9 µM,> 14.4 µM,0.133 µM
COc1ccc(COCCOCc2nc(C#N)c(N)o2)cc1,> 100 µM,> 100 µM,> 100 µM,> 100 µM,> 100 µM,> 100 µM,> 100 µM,> 100 µM,> 100 µM,> 100 µM,> 100 µM,> 100 µM
COC(=O)c1ccccc1CC1Cc2ccc3c(c2C1=O)CCCC3 (stereo unspecified),> 100 µM,> 100 µM,> 84.9 µM,> 100 µM,> 100 µM,> 100 µM,> 100 µM,> 100 µM,> 100 µM,> 100 µM,> 100 µM,> 100 µM
Cc1cn2c(/C=N/N=C(N)N)c(-c3cccc([N+](=O)[O-])c3)nc2s1,5.5 µM,2.51 µM,> 100 µM,2.95 µM,19.7 µM,3.78 µM,4.05 µM,2.38 µM,5.39 µM,4.36 µM,3.7 µM,1.86 µM
CN1CCN(C2=NCCO2)CC1,> 100 µM,> 100 µM,> 100 µM,> 100 µM,> 100 µM,> 100 µM,> 100 µM,> 100 µM,> 100 µM,> 100 µM,> 100 µM,> 100 µM
CCOC(=O)c1csc(NC(=O)CN2CCOCC2)n1,> 100 µM,> 100 µM,> 100 µM,> 100 µM,> 100 µM,> 100 µM,> 100 µM,> 100 µM,> 100 µM,> 100 µM,> 100 µM,> 100 µM
N#Cc1c(N2CCCC2)ncn(-c2ccccc2)c1=O,> 100 µM,> 100 µM,> 100 µM,> 100 µM,> 100 µM,> 100 µM,> 100 µM,> 100 µM,> 100 µM,> 100 µM,> 100 µM,> 100 µM
O=[N+]([O-])c1ccc2c(c1)/C(=N/N=C1c3ccccc3Cc3ccccc31)c1cc([N+](=O)[O-])cc([N+](=O)[O-])c1-2,6 µM,3.11 µM,4.91 µM,10.7 µM,3.04 µM,14.1 µM,7.21 µM,6.34 µM,12.3 µM,6.28 µM,3.24 µM,4.07 µM
CN(C(=O)C(Cc1ccccc1)NC(=O)OC(C)(C)C)C1(C(=O)NC(Cc2ccccc2)C(=O)OCc2ccccc2)CCCC1 (stereo not drawn) (Boc-Phe-[NMeAc5c]-Phe-OBn; configuration not given here),> 100 µM,> 100 µM,> 100 µM,51.1 µM,> 100 µM,59.8 µM,> 100 µM,> 100 µM,> 100 µM,45.9 µM,> 100 µM,56.7 µM
Cc1ccc([N+](=O)[O-])cc1NC1=NCCO1,> 100 µM,> 100 µM,> 100 µM,> 100 µM,> 100 µM,> 100 µM,> 100 µM,> 100 µM,> 100 µM,> 100 µM,> 100 µM,> 100 µM
CCOC(=O)C(SCCO)C(C(=O)OCC)n1cnc2c(=O)[nH]c(NC(C)=O)nc21 (stereo unspecified),> 100 µM,> 100 µM,> 100 µM,> 100 µM,> 100 µM,> 100 µM,> 100 µM,> 100 µM,> 100 µM,> 100 µM,> 100 µM,> 100 µM
Cc1cc(Cc2cc(C)c(N)cc2N)c(N)cc1N,> 100 µM,> 100 µM,> 100 µM,> 100 µM,> 100 µM,> 100 µM,> 100 µM,> 100 µM,> 100 µM,> 100 µM,> 100 µM,> 100 µM
O=C(N/N=C(/COc1ccc(Cl)cc1)N=Cc1ccncc1)c1ccncc1,> 100 µM,> 100 µM,> 100 µM,> 100 µM,> 100 µM,> 100 µM,> 100 µM,> 100 µM,> 100 µM,> 100 µM,> 100 µM,> 100 µM
COc1cc(C2c3cc4c(cc3OC(N3CCOCC3)C2C)OCO4)ccc1O (stereo unspecified),> 100 µM,45.1 µM,52.2 µM,> 100 µM,> 100 µM,55.5 µM,35.6 µM,> 100 µM,> 100 µM,> 63.5 µM,> 100 µM,> 100 µM
Cc1ccc(N=NC(=Nc2ccccc2)c2ccc(N(CCC#N)CCC#N)cc2)cc1,> 100 µM,75.1 µM,> 100 µM,71.2 µM,57.1 µM,45.5 µM,> 100 µM,> 100 µM,> 100 µM,> 100 µM,> 100 µM,> 100 µM
Cc1ccccc1C(=O)N1CCc2c([nH]c3ccccc23)C1,76.3 µM,74.1 µM,62.7 µM,41.3 µM,> 100 µM,53.4 µM,48.4 µM,87 µM,75 µM,45.4 µM,> 100 µM,44.7 µM
